The source of these data is US20240109868A1, “EP300/CBP MODULATOR, PREPARATION METHOD THEREFOR AND USE THEREOF” (Miracure Biotechnology Limited, priority 2022, published 2024).

The structures appear in SMILES notation.

One test concerns 22Rv1 Cell. The test can be described thus: 22RV1 cell growth inhibition, CellTiter-Glo, 72 h. The test is classed as cell-based. The conditions noted are these: 22RV1 cells, 72 h culture. A digest of the protocol: (§1)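 Cells seeded at 5×10^3/well overnight in RPMI-1640/10% FBS, then exposed to compound (0.5% DMSO final) for 72 h at 37 °C.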
In another test the test system is vCap Cell. The test can be described thus: vCap cell growth inhibition, CellTiter-Glo, 72 h. The format is cell-based. The conditions noted are these: vCap cells, 72 h culture. The essentials: as §1

On to `CNC(=O)N1CCc2cc(-c3ccc(=O)n(C)c3)cc(Nc3cc(C(F)F)c(-c4cnn(C)c4)cc3F)c2C1` [Compound M001239, 8-((5-(difluoromethyl)-2-fluoro-4-(1-methyl-1H-pyrazol-4-yl)phenyl)amino)-N-methyl-6-(1-methyl-6-oxo-1,6-dihydropyridin-3-yl)-3,4-dihydroisoquinoline-2(1H)-carboxamide], for which the IC50 is below 1000 nM in the test on 22Rv1 Cell (Homo sapiens, 22Rv1, 72 h) and below 1000 nM in the test with vCap Cell (Homo sapiens, VCaP, 72 h).
As to `CC(=O)N1Cc2cc(C3CCC(N)CC3)cc(N3CCCc4cc(-c5cnn(C)c5)c(C(F)F)cc43)c2C1` (stereo not shown) [Compound M001320], the IC50 in the test with 22Rv1 Cell and with vCap Cell was above 1000 nM in each case.
In the case of `CON[C@H]1CC[C@@H](c2cc3c(c(N4CCCc5cc(-c6cnn(C)c6)c(C(F)F)cc54)c2)CN(C(C)=O)C3)CC1` [Compound M001340], the half-inhibitory concentration (IC50) in the test on 22Rv1 Cell (Homo sapiens, 22Rv1, 72 h) was above 1000 nM; in the test with vCap Cell (Homo sapiens, VCaP, 72 h) it was above 1000 nM.
`CNC(=O)N1Cc2cc(C3=CCN(C(=O)OCc4ccccc4)CC3)cc(N3CCCc4cc(-c5cnn(C)c5)c(C(F)F)cc43)c2C1` [Compound M001096]: the half-inhibitory concentration (IC50) in the test with 22Rv1 Cell (Homo sapiens, 22Rv1, 72 h) is above 1000 nM; with vCap Cell (Homo sapiens, VCaP, 72 h), above 1000 nM.
For `CC(=O)N1Cc2cc(C3CCN(C(=O)c4ccccc4)CC3)cc(N3CCCc4cc(-c5cnn(C)c5)c(C(F)F)cc43)c2C1` [Compound M001081], the IC50 is below 1000 nM with 22Rv1 Cell (Homo sapiens, 22Rv1, 72 h) and below 1000 nM with vCap Cell (Homo sapiens, VCaP, 72 h).
In the case of `CC(=O)N1Cc2cc(-c3cc[nH]c(=O)c3)cc(N3CCCc4cc(-c5cnn(C)c5)c(C(F)F)cc43)c2C1` [Compound M001156], the half-maximal inhibitory concentration (IC50) in the test on 22Rv1 Cell (Homo sapiens, 22Rv1, 72 h) was above 1000 nM; in the test with vCap Cell (Homo sapiens, VCaP, 72 h), above 1000 nM.
Turning to `CNC(=O)N1Cc2cc(-c3cc[nH]c(=O)c3)cc(N3CCCc4cc(-c5cnn(C)c5)c(C(F)F)cc43)c2C1` [Compound M001155], the half-maximal inhibitory concentration (IC50) was above 1000 nM with 22Rv1 Cell (Homo sapiens, 22Rv1, 72 h) and above 1000 nM with vCap Cell (Homo sapiens, VCaP, 72 h).
With `CNC(=O)N1Cc2cc([C@H]3CC[C@H](O)CC3)cc(N3CCCc4cc(-c5cnn(C)c5)c(C(F)F)cc43)c2C1` [Compound M001193], the IC50 with 22Rv1 Cell (Homo sapiens, 22Rv1, 72 h) is above 1000 nM; in the test with vCap Cell (Homo sapiens, VCaP, 72 h), above 1000 nM.
In the case of `CNC(=O)N1CCc2cc(N3CCSCC3)cc(N3CCCc4cc(-c5cnn(C)c5)c(C(F)F)cc43)c2C1` [Compound M001019], the IC50 with 22Rv1 Cell (Homo sapiens, 22Rv1, 72 h) is above 1000 nM; with vCap Cell (Homo sapiens, VCaP, 72 h) it was above 1000 nM.
`CSC1CCC(c2cc3c(c(N4CCCc5cc(-c6cnn(C)c6)c(C(F)F)cc54)c2)CN(C(C)=O)C3)CC1` (stereo not shown) [Compound M001315]: the 50% inhibitory concentration (IC50) is above 1000 nM in the test on 22Rv1 Cell (Homo sapiens, 22Rv1, 72 h) and below 1000 nM in the test on vCap Cell (Homo sapiens, VCaP, 72 h).
For `CNC(=O)N1CCc2cc(C3CCN(C4COC4)CC3)cc(N3CCCc4cc(-c5cnn(C)c5)c(C(F)F)cc43)c2C1` [Compound M001059], in that order: above 1000 nM and above 1000 nM.
For `CNC(=O)N1CCc2cc(C3CCC(=O)N(CCOC)C3)cc(N3CCCc4cc(-c5cnn(C)c5)c(C(F)F)cc43)c2C1` (stereo not shown) [Compound M001222], in that order: below 1000 nM and below 1000 nM.
For `CNC(=O)N1CCc2cc(C3=CCC4(CC3)OCCO4)cc(N3CCCc4cc(-c5cnn(C)c5)c(C(F)F)cc43)c2C1` [Compound M001090] the same measures were above 1000 nM and above 1000 nM.
As for `CN1CCC(c2cc3c(c(N4CCCc5cc(-c6cnn(C)c6)c(C(F)F)cc54)c2)CN(C)C(=O)C3)CC1` [Compound M001028, 8-[7-(difluoromethyl)-6-(1-methylpyrazol-4-yl)-3,4-dihydro-2H-quinolin-1-yl]-2-methyl-6-(1-methyl-4-piperidyl)-1,4-dihydroisoquinolin-3-one], the 50% inhibitory concentration (IC50) in the test with 22Rv1 Cell (Homo sapiens, 22Rv1, 72 h) was above 1000 nM; with vCap Cell (Homo sapiens, VCaP, 72 h), above 1000 nM.
On to `CNC(=O)N1CCc2cc(C3CCC(=O)N(C)C3)cc(N3CCCc4cc(-c5cnn(C)c5)c(C(F)F)cc43)c2C1` (stereo not shown) [Compound M001170], for which the half-maximal inhibitory concentration (IC50) is below 1000 nM in the test with 22Rv1 Cell (Homo sapiens, 22Rv1, 72 h) and below 1000 nM with vCap Cell (Homo sapiens, VCaP, 72 h).
For `CC(=O)N1Cc2cc(C3CCNC(=O)C3)cc(N3CCCc4cc(-c5cnn(C)c5)ccc43)c2C1` (stereo not shown) [Compound M001218], the half-maximal inhibitory concentration (IC50) was above 1000 nM in the test on 22Rv1 Cell (Homo sapiens, 22Rv1, 72 h) and above 1000 nM in the test on vCap Cell (Homo sapiens, VCaP, 72 h).
`CNC(=O)N1Cc2cc(C3CCNC(=O)C3)cc(N3CCCc4cc(-c5cnn(C)c5)c(C(F)F)cc43)c2C1` (stereo not shown) [Compound M001118]: the IC50 in the test with 22Rv1 Cell (Homo sapiens, 22Rv1, 72 h) is above 1000 nM; in the test on vCap Cell (Homo sapiens, VCaP, 72 h) it was above 1000 nM.
Turning to `CC(=O)N1Cc2cc(C3CCN(C)C(=O)C3)cc(N3CCCc4cc(-c5cnn(C)c5)c(C(F)F)cc43)c2C1` (stereo not shown) [Compound M001127], the concentration for half-maximal inhibition (IC50) in the test with 22Rv1 Cell (Homo sapiens, 22Rv1, 72 h) was below 1000 nM; in the test on vCap Cell (Homo sapiens, VCaP, 72 h), below 1000 nM.
Take `CC(=O)N1CCc2cc(Cl)cc(N3CCCc4cc(-c5cnn(C)c5)c(C(F)F)cc43)c2C1` [Compound M001208]: the IC50 in the test with 22Rv1 Cell (Homo sapiens, 22Rv1, 72 h) was above 1000 nM; with vCap Cell (Homo sapiens, VCaP, 72 h), above 1000 nM.
For the molecule `COC1CCC(c2cc3c(c(N4CCCc5cc(-c6cnn(C)c6)c(C(F)F)cc54)c2)CN(C(C)=O)CC3)CC1` (stereo not shown) [Compound M001197], the IC50 in the test with 22Rv1 Cell and in the test on vCap Cell was above 1000 nM each time.
In the case of `CNC(=O)N1CCc2cc(N3CCOCC3)cc(N3CCCc4cc(-c5cnn(C)c5)c(C(F)F)cc43)c2C1` [Compound M001014, 8-(7-(difluoromethyl)-6-(1-methyl-1H-pyrazol-4-yl)-3,4-dihydroquinolin-1(2H)-yl)-N-methyl-6-morpholine-3,4-dihydroisoquinoline-2(1H)-carboxamide], the IC50 is above 1000 nM in the test with 22Rv1 Cell (Homo sapiens, 22Rv1, 72 h) and above 1000 nM in the test on vCap Cell (Homo sapiens, VCaP, 72 h).
Turning to `Cn1cc(-c2cc3c(cc2C(F)F)N(c2cccc4c2CNC(=O)CC4)CCC3)cn1` [Compound M001215, 9-[7-(difluoromethyl)-6-(1-methylpyrazol-4-yl)-3,4-dihydro-2H-quinolin-1-yl]-1,2,4,5-tetrahydro-2-benzazepin-3-one], the IC50 in the test with 22Rv1 Cell (Homo sapiens, 22Rv1, 72 h) is above 1000 nM; with vCap Cell (Homo sapiens, VCaP, 72 h), above 1000 nM.
Regarding `COC(=O)N1CCc2cc(C3CCC(=O)N(CC(C)(C)O)C3)cc(N3CCCc4cc(-c5cnn(C)c5)c(C(F)F)cc43)c2C1` (stereo not shown) [Compound M001272], the IC50 in the test with 22Rv1 Cell (Homo sapiens, 22Rv1, 72 h) is above 1000 nM; in the test with vCap Cell (Homo sapiens, VCaP, 72 h) it was above 1000 nM.
Take `CCN1CCC(c2cc3c(c(N4CCCc5cc(-c6cnn(C)c6)c(C(F)F)cc54)c2)CN(C(N)=O)CCC3)CC1=O` (stereo not shown) [Compound M001261]: the IC50 in the test on 22Rv1 Cell (Homo sapiens, 22Rv1, 72 h) is above 1000 nM; in the test on vCap Cell (Homo sapiens, VCaP, 72 h) it was above 1000 nM.
`CNC(=O)N1Cc2cc(C3CCN(C)CC3)cc(N3CCCc4cc(-c5cnn(C)c5)c(C(F)F)cc43)c2C1` [Compound M001043]: the IC50 was above 1000 nM in the test with 22Rv1 Cell (Homo sapiens, 22Rv1, 72 h) and above 1000 nM in the test with vCap Cell (Homo sapiens, VCaP, 72 h).
In the case of `CC(=O)N1Cc2cc(C3CCC(S(C)(=N)=O)CC3)cc(N3CCCc4cc(-c5cnn(C)c5)c(C(F)F)cc43)c2C1` (stereo not shown) [Compound M001297, (4-(2-acetyl-7-(7-(difluoromethyl)-6-(1-methyl-1H-pyrazol-4-yl)-3,4-dihydroquinolin-1(2H)-yl)isoindol-5-yl)cyclohexyl)(imino)(methyl)-16-sulfanone], the IC50 with 22Rv1 Cell (Homo sapiens, 22Rv1, 72 h) is below 1000 nM; with vCap Cell (Homo sapiens, VCaP, 72 h), below 1000 nM.
As for `Cn1cc(-c2cc3c(cc2C(F)F)N(c2cccc4c2CN(C(=O)C2CC2)CCC4)CCC3)cn1` [Compound M001214], the IC50 in the test with 22Rv1 Cell (Homo sapiens, 22Rv1, 72 h) was above 1000 nM; in the test on vCap Cell (Homo sapiens, VCaP, 72 h), above 1000 nM.
As to `CC(=O)N1Cc2cc(C3CCN(C(=O)C4CC4)CC3)cc(N3CCCc4cc(-c5cnn(C)c5)c(C(F)F)cc43)c2C1` [Compound M001072], the half-inhibitory concentration (IC50) was above 1000 nM in the test on 22Rv1 Cell (Homo sapiens, 22Rv1, 72 h) and above 1000 nM in the test on vCap Cell (Homo sapiens, VCaP, 72 h).
Turning to `CC(=O)N1Cc2cc(C3CC4CCC(C3)N4)cc(N3CCCc4cc(-c5cnn(C)c5)c(C(F)F)cc43)c2C1` (stereo not shown) [Compound M001052], the half-inhibitory concentration (IC50) in the test on 22Rv1 Cell (Homo sapiens, 22Rv1, 72 h) was above 1000 nM; with vCap Cell (Homo sapiens, VCaP, 72 h), above 1000 nM.
